Test [1] relates to adenylyl cyclase (activator effect). In words: CEREP Diversity Panel. It counts as biochemical. Set-up: dose or concentration left out as unconfirmed. The procedure:
(§1) […]. MAO-A inhibition at 10 μM was 37%, in line with internal data.

For test [2], the system named is COMT (catechol- O-methyl transferase). In words: CEREP Diversity Panel. The test is classed as biochemical. Set-up: dose or concentration left out as unconfirmed. The procedure:
as §1

For test [3], the system named is ATPase (Na+/K+). The experiment in a line: CEREP Diversity Panel. It counts as biochemical. More on the design: dose or concentration left out as unconfirmed. How it is done:
as §1

Test [4] deals with KDM1A (Homo sapiens, UniProt O60341). The experiment in a line: MALDI-TOF mass spectrometry of FAD-ORY-2001 adducts. The test is classed as binding. The procedure: The sample was initially purified by reversed phase chromatography in a ZipTipC18 pipette tip (Millipore, USA) wet using column and equilibrated with 0.1% TFA. The sample was bound to the column by repeated aspiring and dispensing to achieve maximum binding. The ZipTip pipette tip was washed three times with 0.1% TFA and eluted in 4 µl. of 50 % ACN/ 0.1% TFA. 1 µl of eluted sample was loaded onto an AnchorChip MALDI target (Bruker, Germany); 2 µl. of matrix solution (0.3 mg/ml HCCA -alpha-cyano-4-hydroxycinamic acid in EtOH/acetone 2:1) was added and the mixture was allowed to dry at room temperature. The sample preparations were analyzed in an AutoFlex Speed MALDI TOF/TOF mass spectrometer (Bruker, Germany), equipped with a Nd:YAG laser. MS spectra were acquired in Reflector mode, with either positive or negative polarity. MSMS post source-decay fragmentation spectra of selected precursor ions were obtained using the LIFT module (Bruker, Germany).

The subject of test [5] is isolated Sprague-Dawley rats. In words: Elevated Plus Maze, rat isolation rearing model. It counts as in vivo. Particulars: 0.16 or 0.48 mg/kg/day in drinking water, approximately 1 month. How it is done:
Sprague Dawley Rats: Right after the weaning (post natal day 21-23), 72 Sprague-Dawley male rats (Charles River, bred in the UAB Animal facility) were divided in two groups: Control (N = 18), maintained 3-4 animals per cage; Isolated (N = 54), 1 animal per cage ([…] 1291H Eurostandard type III with ECOPURE CHIPS 6 bedding material, Harlan). Animals were maintained at 21 ± 2 °C controlled temperature in a 12 hr light / dark cycle (lights on at 8:00 am) with ad libitum access to food (2014 TEKLAD, Harlan) and water. […] Control animals were treated with vehicle. The administration route was drinking water and the vehicle 1.8% 2-Hydroxypropyl-b-cyclodextrin. Drug concentration was adjusted weekly by body weight and water consumption. During the last week of treatment, all animals were tested in the EPM and, on a different day, in the RI test (N = 12 / group). […]
The EPM consisted of four arms at right angles to each other connected to a central square and maintained elevated 50 cm above the floor. […] The animal was placed facing a closed arm, and its movements were video-recorded for 5 min and analyzed by video-tracking using SMART® (v3.0, PanLab, SLU, Spain).
Elevated Plus Maze (EPM): Movements were video-recorded for 5 min and analyzed by video-tracking using SMART® (v3.0, PanLab, SLU, Spain).

In test [6] the test system is SAMP8 mice. The experiment in a line: Resident Intruder (RI) test, SAMP8. The test is classed as in vivo, mouse. The conditions noted are these: 0.32 or 0.96 mg/kg/day for 5 weeks, male. How it is done: Both male and female mice from the senescence accelerated strain SAMP8 and its control SAMR1 of different ages (see Table S3 for details) were used in these studies. Mice were breed in the animal facilities of the Pharmacy Faculty (University of Barcelona), maintained in a at 22 ± 2 °C controlled temperature in a 12 hr light / dark cycle (lights on at 8:00 am; 300 lux/0 lux) with ad libitum access to food (2018 TEKLAD, Harlan) and water. Male mice were housed individually (males) or in groups of 4-5 animals (females) in plastic colony boxes with a sawdust bedding material. […] SAMR1 mice treated with vehicle were included as a control. All drugs were administered via drinking water and diluted in vehicle. Drug concentration was calculated weekly in function of body weight and corrected in function of drinking water consumption. Cognitive function was evaluated by NORT, social behavior was evaluated by RI and anxiety and motor function were evaluated by EPM and OF. When necessary, animals were deeply anesthetized (80 mg/kg sodium pentobarbital) and brain samples (hippocampus, (prefrontal) cortex) were micro-dissected and processed according to the downstream analysis.
The protocol was modified from previously described. Briefly, the test subject (resident) was maintained in its home cage without bedding changes for one week. […] In mice the session was video-recorded for 20 min and social interaction (social interaction and rearings) and aggressive behavior (lateral threats, clinch attacks, keep-down behavior) were analyzed. […] In rats the session was video recorded for 15 min and social interaction (active and passive social interaction, number of evitations and time without social interaction) were analyzed. […] In addition, the time spent without social interaction was also measured.
Resident Intruder (RI): Mice were video-recorded for 20 min and social interaction and aggressive behavior were analyzed. Rats were video recorded for 15 min and social interaction (active and passive social interaction, number of evitations and time without social interaction) were analyzed.

Test [7] relates to guanylyl cyclase (h) (activator effect). The experiment in a line: CEREP Diversity Panel. The test is classed as biochemical, human. More on the design: dose or concentration left out as unconfirmed. How it is done:
as §1

The structures appear in SMILES notation.

A word on the % inhibition: it is the percentage by which the read-out fell short of the control. Take `Nc1nnc(CN[C@@H]2C[C@H]2c2ccc(OCc3ccccc3)cc2)o1` [ORY-2001, vafidemstat]: the “% inhibition” value in test [1] was determined as 0%; in test [2], 11%; in test [3], 4%; in test [7], 1%. In test [4], the “adduct formation with KDM1A” value is recorded as “adduct formation”. Besides, the “anxiety and locomotor activity in the EPM” value in test [5] is on record as “did not produce any significant effect on anxiety or locomotor activity”. The latency to attack result in test [6] is recorded as “tendency to increase the latency to attack”. In addition, in test [6], the “number of attacks and clinch attacks” value was “lowered to SAMR1 levels”. In addition, in test [6], the “time in social interactions and number of rearings” value is “No significant strain- or treatment-differences”.
